Laboratory results as given in patent US4237135A, “2-(4-Ethyl-1-piperazinyl)-4-phenylquinoline, process for preparation thereof, and composition thereof” (Dainippon Pharmaceutical Co., Ltd., priority 1978, dated 1980).

How the values were obtained:
antidepressant activity = assay: Antidepressant activity, overall (Test 1); assay type: in vivo, male STD-ddY strain mice; male Wistar strain rats
Description: This effect was examined according to the method of […]. 2, 725 (1963)], using male STD-ddY strain mice weighing 20-25 g. […] Rectal temperature of each mouse was measured 4 hours later with a thermister (Shibaura Electric, BMG III-130). […] Male STD-ddY strain mice, weighing […], were used in groups of 10 mice each. […] The mice were tested for catalepsy 1 hour after the administration of test compounds. ED50 was calculated for each compound. […] Male STD-ddY strain mice, weighing 20-25 g, were used in groups of 10 mice each. […] Two hours after the tetrabenazine injection, the degree of eyelid closure (ptosis) was assessed on the basis of macroscopic scoring (0: no closure of the eyelid, 1: 1/4 closure, 2: 2/4 closure, 3: 3/4 closure and 4: complete closure), essentially according to the method of P. A. J. Janssen [Arzneim. Forsch. 15, 104 (1965)]. ED50 was calcuated for each compound. […] Male Wistar strain rats, weighing 240-260 g, which had developed mouse-killing behavior after ablation of the olfactory bulb according to the method of Z. P. Horovitz [Int. J. Neuropharmacol. 5, 405 (1966)], were used in groups of 15 animals each. […] ED50 was calculated for each compound.

[1] = tested on: spontaneous and methamphetamine-induced locomotor activities; assay: Neuroleptics-like activity, overall (Test 2); assay type: in vivo, male STD-ddY strain mice; conditions: overall conclusion
Description: Each test compound was given orally to the mice in 5 different doses, and 2 hours later the spontaneous locomotor activity of each mouse was measured for 3 minutes by means of an Animex locomotor activity meter (made by Farad Electronics). ED50 was calculated for each compound.
Male STD-ddY strain mice, weighing 20-25 g, were used in groups of 10 mice each. Groups of mice were injected intraperitoneally with 4 mg/kg of methamphetamine, and 30 minutes later each test compound was injected intraperitoneally in 3 different doses. One hour after the injection of methamphetamine, locomotor activity of each mouse was measured for 10 minutes with an Animex locomotor activity meter.

## CCN1CCN(c2cc(-c3ccccc3)c3ccccc3n2)CC1.Cl.Cl [A, 2-(4-Ethyl-1-piperazinyl)-4-phenylquinoline dihydrochloride]
Antidepressant activity; hypothermia and catalepsy, p.o.
  Anti-reserpine activity (in words): more potent anti-reserpine activity than imipramine
Antidepressant activity; overall conclusion
  Antidepressant activity (in words): more potent than its analogues, compounds 1 and 2 and also than imipramine
Antidepressant activity; versus compounds 4 and 5, Table 2, p.o.
  Anti-reserpine and anti-tetrabenazine potency relative to compounds 4 and 5: 2-17 times more potent
[1]
  Neuroleptics-like activity (in words): shows some neuroleptics-like effects
